For assay [1], the target named is T1, T1R2/T1R3 (Homo sapiens) (UniProt Q8TE23+Q7RTX0). Put plainly: Activity at human T1R2/T1R3 expressed in HEK293T cells co-expressing Galpha-16-gust44 assessed as F340/F380 ratio at 1.25 mM in presence of T1R2/T1R3 antagonist lactisole. The note with it: HEK-293T. Format: functional, cell-based.
The target of assay [2] is T1, T1R2/T1R3 (Homo sapiens). Put plainly: Activity at human T1R2/T1R3 expressed in HEK293T cells co-expressing Galpha-16-gust44 assessed as F340/F380 ratio at 1.25 mM. Type of assay: cell-based. The note with it: HEK-293T.

Calls of active or inactive are those of the source. The calls are words filed in the database; no cut-off is given here.

For `N[C@H](Cc1ccc(C2(C(F)(F)F)N=N2)cc1)C(=O)O`, the result at T1R2/T1R3 (Homo sapiens) [1] was inactive. Moreover, the outcome at T1R2/T1R3 (Homo sapiens) [2] was Active.
On to `N[C@H](Cc1cccc(C2(C(F)(F)F)N=N2)c1)C(=O)O`, for which the result at T1R2/T1R3 (Homo sapiens) [1] was inactive. Moreover, the result on T1R2/T1R3 (Homo sapiens) [2] was Active.

The record behind these values is ChEMBL document CHEMBL1158521, “Photoactive ligands probing the sweet taste receptor. Design and synthesis of highly potent diazirinyl D-phenylalanine derivatives” (Bioorg Med Chem Lett, 2010).
